From patent publication US11059832B2, “HPK1 inhibitors and methods of using same” (University Health Network, priority 2015, dated 2021)

How the values were obtained:
Assay type in all cases: biochemical
[1] = molecular target: T1, LCK (Homo sapiens, UniProt P06239); assay: LCK inhibition, FRET based Z'-LYTE Kinase Assay; settings: 25 nM LCK, 180 μM ATP; read-out: IC50 Range Lck
T1 construct: purchased Invitrogen P3043
Experimental: (§1) FLT3 and LCK compound inhibition were determined using FRET based Z′-LYTE Kinase Assay Kit with Tyrosine 2 peptide as the substrate (Invitrogen cat #PV3191). […] The % inhibition values were determined according to the manufacturer's directions and IC50 values were obtained using a non-linear 4 point logistic curve fit (XLfit4, IDBS).

[2] = molecular target: T2, FLT3 (Homo sapiens, UniProt P36888); assay: FLT3 inhibition, FRET based Z'-LYTE Kinase Assay; settings: 1 nM FLT3, 940 μM ATP; read-out: IC50 Range Flt3
T2 construct: purchased Invitrogen PV3182
T2 sequence (P36888 27-993): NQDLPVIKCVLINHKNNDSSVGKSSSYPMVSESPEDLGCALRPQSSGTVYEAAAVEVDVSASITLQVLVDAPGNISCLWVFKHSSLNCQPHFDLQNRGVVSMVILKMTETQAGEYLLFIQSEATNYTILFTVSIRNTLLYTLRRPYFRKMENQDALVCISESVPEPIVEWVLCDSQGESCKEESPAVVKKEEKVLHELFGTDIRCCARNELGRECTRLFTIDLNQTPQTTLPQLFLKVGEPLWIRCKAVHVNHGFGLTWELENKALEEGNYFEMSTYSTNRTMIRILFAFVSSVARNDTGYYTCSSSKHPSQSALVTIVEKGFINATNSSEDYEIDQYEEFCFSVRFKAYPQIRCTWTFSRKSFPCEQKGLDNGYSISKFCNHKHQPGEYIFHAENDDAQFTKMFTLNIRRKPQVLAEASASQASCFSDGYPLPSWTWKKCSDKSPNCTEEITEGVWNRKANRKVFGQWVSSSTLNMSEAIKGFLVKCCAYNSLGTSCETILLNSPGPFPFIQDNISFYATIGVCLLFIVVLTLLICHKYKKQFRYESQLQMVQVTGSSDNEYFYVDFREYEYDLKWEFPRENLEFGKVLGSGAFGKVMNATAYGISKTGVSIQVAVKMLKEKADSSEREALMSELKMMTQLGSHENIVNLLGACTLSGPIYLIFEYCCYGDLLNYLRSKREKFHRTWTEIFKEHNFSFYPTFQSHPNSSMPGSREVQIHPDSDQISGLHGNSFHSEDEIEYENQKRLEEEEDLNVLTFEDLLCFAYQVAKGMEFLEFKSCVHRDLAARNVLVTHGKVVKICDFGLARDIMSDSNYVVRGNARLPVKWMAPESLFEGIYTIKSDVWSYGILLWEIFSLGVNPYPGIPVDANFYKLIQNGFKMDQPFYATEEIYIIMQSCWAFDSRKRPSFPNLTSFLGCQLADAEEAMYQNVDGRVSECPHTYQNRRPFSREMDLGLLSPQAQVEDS
Experimental: as §1

[3] = molecular target: T3, human HPK1 (MAP4K1) (Homo sapiens, UniProt Q92918); assay: HPK1 inhibition assay (indirect ELISA); settings: GST-HPK1 0.6 nM, 12 μM ATP; read-out: IC50 Range HPK1
T3 construct: human HPK1 (aa 1-346); purchased Invitrogen PV6355
T3 sequence (Q92918 1-346): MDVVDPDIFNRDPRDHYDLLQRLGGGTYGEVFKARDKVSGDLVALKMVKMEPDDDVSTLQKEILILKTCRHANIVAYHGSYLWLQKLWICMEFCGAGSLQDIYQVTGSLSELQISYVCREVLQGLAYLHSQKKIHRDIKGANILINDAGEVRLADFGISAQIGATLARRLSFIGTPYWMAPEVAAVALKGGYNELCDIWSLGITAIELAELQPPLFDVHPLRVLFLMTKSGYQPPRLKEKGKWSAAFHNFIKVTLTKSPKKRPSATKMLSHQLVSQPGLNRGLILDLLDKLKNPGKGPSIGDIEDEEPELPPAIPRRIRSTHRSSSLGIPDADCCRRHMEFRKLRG
Experimental: Active HPK1 (MAP4K1) was purchased as an N-terminal GST fusion of human HPK1 (aa 1-346) from Invitrogen (cat #PV6355). HPK1 activity was measured using an indirect ELISA detection system. GST-HPK1 (0.6 nM) was incubated in the presence of 12 μM ATP (Sigma cat #A7699), 5 mM MOPS (pH 7.2), 2.5 mM β-glycerol-phosphate, 5 mM MgCl2, 0.4 mM EDTA, 1 mM EGTA, 0.05 mM DTT, in a 96 well microtitre plate pre-coated with 0.5 μg/well bovine myelin basic protein (MBP) (Millipore, cat #13-110). The reaction was allowed to proceed for 30 min, followed by 5 washes of the plate with Wash Buffer (phosphate buffered saline supplemented with 0.2% Tween 20), and incubation for 30 min with a 1:3000 dilution of anti-phospho-threonine rabbit polyclonal antibody (Cell Signaling cat #9381). The plate was washed 5 times with wash buffer, incubated for 30 min in the presence of goat anti-rabbit horse radish peroxidase conjugate (BioRad cat #1721019, 1:3000 concentration), washed an additional 5 times with wash buffer, and incubated in the presence of TMB substrate (Sigma cat #T0440). The colorimetric reaction was allowed to continue for 5 min, followed by addition of stop solution (0.5 N H2SO4), and quantified by detection at 450 nm with a monochromatic plate reader (Molecular Devices M5).
Compound inhibition was determined at either a fixed concentration (10 μM) or at a variable inhibitor concentration (typically 50 μM to 0.1 μM in a 10 point dose response titration). Compounds were pre-incubated in the presence of enzyme for 15 min prior to addition of ATP and the activity remaining quantified using the above described activity assay. The % inhibition of a compound was determined using the following formula; % inhibition=100×(1−(experimental value−background value)/(high activity control−background value)). The IC50 value was determined using a non-linear 4 point logistic curve fit (XLfit4, IDBS) with the formula; (A+(B/(1+((x/C)^D)))), where A=background value, B=range, C=inflection point, D=curve fit parameter.

T1 sequence (P06239 whole entry, species assumed): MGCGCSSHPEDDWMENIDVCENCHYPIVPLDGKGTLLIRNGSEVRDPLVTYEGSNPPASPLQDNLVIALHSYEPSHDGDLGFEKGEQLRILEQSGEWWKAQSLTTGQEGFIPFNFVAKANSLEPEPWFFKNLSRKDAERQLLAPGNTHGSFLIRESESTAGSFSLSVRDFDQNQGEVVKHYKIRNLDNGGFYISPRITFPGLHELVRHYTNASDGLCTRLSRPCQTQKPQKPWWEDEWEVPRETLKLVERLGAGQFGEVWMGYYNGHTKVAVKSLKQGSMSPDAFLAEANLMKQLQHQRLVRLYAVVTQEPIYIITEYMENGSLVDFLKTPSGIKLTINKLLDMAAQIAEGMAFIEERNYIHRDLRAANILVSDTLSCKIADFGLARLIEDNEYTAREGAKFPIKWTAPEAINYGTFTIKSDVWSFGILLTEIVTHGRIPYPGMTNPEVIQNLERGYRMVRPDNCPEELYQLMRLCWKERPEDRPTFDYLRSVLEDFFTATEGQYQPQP

Row | SMILES | IC50 [1] [nM] | IC50 [2] [nM] | IC50 [3] [nM]
1 | CN1CCN(c2ccc3nc(-c4c(N[C@@H]5CC[C@@H](O)C5)c5ccsc5[nH]c4=O)[nH]c3c2)CC1 (relative stereo) [Example A9, 4-(((1R*,3R*)-3-hydroxycyclopentyl)amino)-5-(6-(4-methylpiperazin-1-yl)-1H-benzo[d]imidazol-2-yl)thieno[2,3-b]pyridin-6(7H)-one] | ≤ 50 | ≤ 50 | ≤ 50
2 | CN1CCN(c2ccc3nc(-c4c(N[C@@H]5CC[C@H](O)C5)c5ccsc5[nH]c4=O)[nH]c3c2)CC1 (relative stereo) [Example A13, 4-(((1R*,3S*)-3-hydroxycyclopentyl)amino)-5-(6-(4-methylpiperazin-1-yl)-1H-benzo[d]imidazol-2-yl)thieno[2,3-b]pyridin-6(7H)-one] | 50 to 500 | ≤ 50 | ≤ 50
3 | Cc1csc2[nH]c(=O)c(-c3nc4ccc(N5CCN(C)CC5)cc4[nH]3)c(N)c12 [Example A2, 4-amino-3-methyl-5-(6-(4-methylpiperazin-1-yl)-1H-benzo[d]imidazol-2-yl) thieno[2,3-b]pyridin-6(7H)-one] | 50 to 500 | ≤ 50 | ≤ 50
4 | Nc1c(-c2nc3ccc(N4CCOCC4)cc3[nH]2)c(=O)[nH]c2sccc12 [Example A4, 4-amino-5-(6-morpholino-1H-benzo[d]imidazol-2-yl)thieno[2,3-b]pyridin-6(7H)-one] | 50 to 500 | ≤ 50 | ≤ 50
5 | CN1CCN(c2ccc3nc(-c4c(NC5CCOCC5)c5ccsc5[nH]c4=O)[nH]c3c2)CC1 [Example A7, 5-(6-(4-methylpiperazin-1-yl)-1H-benzo[d]imidazol-2-yl)-4-((tetrahydro-2H-pyran-4-yl)amino)thieno[2,3-b]pyridin-6(7H)-one] | 50 to 500 | ≤ 50 | ≤ 50
6 | CN1CCN(c2ccc3nc(-c4c(N[C@H]5C[C@H](O)C5)c5ccsc5[nH]c4=O)[nH]c3c2)CC1 [Example A8, 4-(((1r,3r)-3-hydroxycyclobutyl)amino)-5-(6-(4-methylpiperazin-1-yl)-1H-benzo[d]imidazol-2-yl)thieno[2,3-b]pyridin-6(7H)-one] | 50 to 500 | ≤ 50 | ≤ 50
7 | CN1CCN(c2ccc3nc(-c4c(N[C@@H]5CCNC[C@H]5F)c5ccsc5[nH]c4=O)[nH]c3c2)CC1 [Example A14, 4-(((3R,4R)-3-fluoropiperidin-4-yl)amino)-5-(6-(4-methylpiperazin-1-yl)-1H-benzo[d]imidazol-2-yl)thieno[2,3-b]pyridin-6(7H)-one] | ≤ 50 | ≤ 50 | ≤ 50
8 | CN1CCN(c2ccc3nc(-c4c(NC5CCNCC5(F)F)c5ccsc5[nH]c4=O)[nH]c3c2)CC1 (stereo not shown) [Example A15, 4-((3,3-difluoropiperidin-4-yl)amino)-5-(6-(4-methylpiperazin-1-yl)-1H-benzo[d]imidazol-2-yl)thieno[2,3-b]pyridin-6(7H)-one] | ≤ 50 | ≤ 50 | ≤ 50

Second part, the compound after the results:

Row | IC50 [1] [nM] | IC50 [2] [nM] | IC50 [3] [nM] | SMILES
9 | ≤ 50 | ≤ 50 | ≤ 50 | CN1CCN(c2ccc3nc(-c4c(N[C@@H]5CC[C@H](O)C5)c5sccc5[nH]c4=O)[nH]c3c2)CC1 (relative stereo) [Example A36, 7-(((1R*,3S*)-3-hydroxycyclopentyl)amino)-6-(6-(4-methylpiperazin-1-yl)-1H-benzo[d]imidazol-2-yl)thieno[3,2-b]pyridin-5(4H)-one]
10 | 50 to 500 | ≤ 50 | ≤ 50 | CN1CCN(c2ccc3nc(-c4c(N[C@H]5CCNC[C@H]5F)c5ccsc5[nH]c4=O)[nH]c3c2)CC1 (relative stereo) [Example A55, 4-(((3R*,4S*)-3-fluoropiperidin-4-yl)amino)-5-(6-(4-methylpiperazin-1-yl)-1H-benzo[d]imidazol-2-yl)thieno[2,3-b]pyridin-6(7H)-one]
11 | ≤ 50 | ≤ 50 | ≤ 50 | CN1CCN(c2ccc3nc(-c4c(NC5CCN(C=O)CC5)c5ccsc5[nH]c4=O)[nH]c3c2)CC1 [Example A17, 4-((5-(6-(4-methylpiperazin-1-yl)-1H-benzo[d]imidazol-2-yl)-6-oxo-6,7-dihydrothieno[2,3-b]pyridin-4-yl)amino)piperidine-1-carbaldehyde]
12 | 50 to 500 | ≤ 50 | ≤ 50 | CN1CCN(c2ccc3nc(-c4c(NCc5ccncc5)c5sccc5[nH]c4=O)[nH]c3c2)CC1 [Example A22, 6-(6-(4-methylpiperazin-1-yl)-1H-benzo[d]imidazol-2-yl)-7-((pyridin-4-ylmethyl)amino)thieno[3,2-b]pyridin-5(4H)-one]
13 | ≤ 50 | ≤ 50 | ≤ 50 | CN1CCN(c2ccc3nc(-c4c(NC5CCCC5)c5cscc5[nH]c4=O)[nH]c3c2)CC1 [Example A24, 4-(cyclopentylamino)-3-(6-(4-methylpiperazin-1-yl)-1H-benzo[d]imidazol-2-yl)thieno[3,4-b]pyridin-2(1H)-one]
14 | ≤ 50 | ≤ 50 | ≤ 50 | CN1CCN(c2ccc3nc(-c4c(NC5CCC5)c5cscc5[nH]c4=O)[nH]c3c2)CC1 [Example A27, 4-(cyclobutylamino)-3-(6-(4-methylpiperazin-1-yl)-1H-benzo[d]imidazol-2-yl)thieno[3,4-b]pyridin-2(1H)-one]
15 | 50 to 500 | ≤ 50 | ≤ 50 | Nc1c(-c2nc3ccc(N4CCOCC4)cc3[nH]2)c(=O)[nH]c2ccsc12 [Example A31, 7-amino-6-(6-morpholino-1H-benzo[d]imidazol-2-yl)thieno[3,2-b]pyridin-5(4H)-one]
16 | 50 to 500 | ≤ 50 | – | CN1CCN(c2ccc3nc(-c4c(N)c5ccsc5[nH]c4=O)[nH]c3c2F)CC1 [Example A69, 4-amino-5-(7-fluoro-6-(4-methylpiperazin-1-yl)-1H-benzo[d]imidazol-2-yl)thieno[2,3-b]pyridin-6(7H)-one]
17 | ≤ 50 | ≤ 50 | – | CN1CCN(c2ccc3nc(-c4c(N[C@H]5CCCC[C@H]5O)c5cscc5[nH]c4=O)[nH]c3c2)CC1 [Example A70, 4-(((1S,2R)-2-hydroxycyclohexyl)amino)-3-(6-(4-methylpiperazin-1-yl)-1H-benzo[d]imidazol-2-yl)thieno[3,4-b]pyridin-2(1H)-one]
